In US20240262814A1, “MODULATORS OF TREX1” (Constellation Pharmaceuticals, Inc., priority 2021, published 2024):

How the values were obtained:
[1] = target: T1, human TREX2 (Homo sapiens, UniProt Q9BQ50); assay: hTREX2 Biochemical Assay (selectivity hTREX1 vs hTREX2); conditions: biochemical selectivity for hTREX1 vs hTREX2
T1 construct: human TREX2 (residues M44-A279, expressed in E. coli); made in house; host or cells: E. coli
T1 sequence (Q9BQ50 44-279 isoform Q9BQ50-1): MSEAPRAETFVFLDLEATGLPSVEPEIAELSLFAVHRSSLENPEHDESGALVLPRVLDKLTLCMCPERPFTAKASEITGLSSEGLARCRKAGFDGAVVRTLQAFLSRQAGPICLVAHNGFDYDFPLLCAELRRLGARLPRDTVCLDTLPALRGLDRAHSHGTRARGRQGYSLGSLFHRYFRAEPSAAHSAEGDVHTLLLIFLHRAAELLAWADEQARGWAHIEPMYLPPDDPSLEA
Method: Degradation of the dsDNA liberates free fluorophore to produce a fluorescent signal. Specifically, 7.5 p L of N-terminally His-Tev tagged human TREX2 (residues M44-A279, expressed in E. coli and purified in house) in reaction buffer (50 mM Tris, 150 mM NaCl, 2 mM DTT, 0.1 mg/mL BSA, 0.01% (w/v) Tween-20, 5 mM MgCl2, pH 7.4) was added to a 384-well Black ProxiPlate Plus (PerkinElmer) which already contained compound (150 nL) at varying concentrations as a 10 point dose-response in DMSO. The plate was incubated at 25° C. for 4 hours. Reactions were initiated by adding 7.5 μL of dsDNA substrate (Strand A: 5′ TEX615/GCT AGG CAG 3′; Strand B: 5′ CTG CCT AGC/IAbRQSp (IDT)) in reaction buffer. Final concentrations were 50 pM TREX2, 60 nM dsDNA substrate in reaction buffer with 1.0% DMSO (v/v). After 18 hours at 25° C., reactions were quenched by the addition of 2 μL of 500 mM EDTA. Final concentrations in the quenched reaction mixture were 44 pM TREX2, 53 nM DNA and 59 mM EDTA in a volume of 17 μL. After a 5-minute incubation at room temperature, plates were read in an EnVision plate reader (PerkinElmer) measuring fluorescence at 615 nm following excitation w/ 570 nm light. IC50 values were calculated by comparing the measured fluorescence at 615 nm relative to control wells pre-quenched w/ stop buffer (100% inhibition) and no inhibitor (0% inhibition) controls as using non-linear least square four parameter fits and either Genedata or GraphPad Prism (GraphPad Software, Inc.).

[2] = target: T2, human TREX1 (Homo sapiens, UniProt Q9NSU2); assay: hTREX1 Biochemical Assay (fluorescence, dsDNA substrate degradation); conditions: full length human TREX1, 4 h pre-incubation, 18 h reaction at 25° C.
T2 construct: N-terminally His-Tev tagged full length human TREX1; made in house; host or cells: E. coli
T2 sequence (Q9NSU2 1-314): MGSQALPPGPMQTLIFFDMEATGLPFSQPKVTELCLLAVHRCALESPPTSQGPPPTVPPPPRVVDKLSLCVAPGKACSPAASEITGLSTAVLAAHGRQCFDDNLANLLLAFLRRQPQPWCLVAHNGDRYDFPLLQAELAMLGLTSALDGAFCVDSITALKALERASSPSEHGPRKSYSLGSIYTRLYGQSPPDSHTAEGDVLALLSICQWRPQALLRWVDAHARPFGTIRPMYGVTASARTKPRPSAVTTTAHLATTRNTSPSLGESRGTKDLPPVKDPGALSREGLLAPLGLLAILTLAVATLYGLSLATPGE
Method: (§1) Degradation of the dsDNA liberates free fluorophore to produce a fluorescent signal. Specifically, 7.5 μL of N-terminally His-Tev tagged full length human TREX1 (expressed in E. coli and purified in house) in reaction buffer (50 mM Tris, 150 mM NaCl, 2 mM DTT, 0.1 mg/mL BSA, 0.01% (w/v) Tween-20, 5 mM MgCl2, pH 7.4) was added to a 384-well Black ProxiPlate Plus (PerkinElmer) which already contained compound (150 nL) at varying concentrations as a 10 point dose-response in DMSO. The plate was incubated at 25° C. for 4 hours. Reactions were initiated by adding 7.5 μL of dsDNA substrate (Strand A: 5′ TEX615/GCT AGG CAG 3′; Strand B: 5′ CTG CCT AGC/IAbRQSp (Integrated DNA Technologies)) in reaction buffer. Final concentrations were 4 pM TREX1, 60 nM dsDNA substrate in reaction buffer with 1.0% DMSO (v/v). After 18 hours at 25° C., reactions were quenched by the addition of 2 p L of 500 mM EDTA. Final concentrations in the quenched reaction were 3.5 pM TREX1, 53 nM DNA and 59 mM EDTA in a volume of 17 μL. After a 5-minute incubation at room temperature, plates were read in an EnVision plate reader (PerkinElmer) measuring fluorescence at 615 nm following excitation w/ 570 nm light. IC50 values were calculated by comparing the measured fluorescence at 615 nm relative to control wells pre-quenched w/ EDTA (100% inhibition) and no inhibitor (0% inhibition) controls as using non-linear least square four parameter fits and either Genedata or GraphPad Prism (GraphPad Software, Inc.).

[3] = target: T3, mouse TREX1 (Mus musculus, UniProt Q91XB0); assay: mTREX1 Biochemical Assay (fluorescence, dsDNA substrate degradation); conditions: full length mouse TREX1, 4 h pre-incubation, 18 h reaction at 25° C.
T3 construct: N-terminally His-Tev tagged full length mouse TREX1; made in house; host or cells: E. coli
T3 sequence (Q91XB0 1-314): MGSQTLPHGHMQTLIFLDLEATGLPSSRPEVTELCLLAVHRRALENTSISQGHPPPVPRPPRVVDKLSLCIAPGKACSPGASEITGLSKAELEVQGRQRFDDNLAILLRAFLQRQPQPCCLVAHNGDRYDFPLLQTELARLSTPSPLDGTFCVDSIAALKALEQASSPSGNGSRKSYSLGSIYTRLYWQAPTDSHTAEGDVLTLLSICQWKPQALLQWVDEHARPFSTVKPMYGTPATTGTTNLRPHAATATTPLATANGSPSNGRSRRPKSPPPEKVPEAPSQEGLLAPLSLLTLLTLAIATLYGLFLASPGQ
Method: as §1, with “Specifically, 7.5 p L of N-terminally” for “Specifically, 7.5 μL of N-terminally”, “full length mouse TREX1 (expressed” for “full length human TREX1 (expressed”, “concentrations were 6 pM TREX1,” for “concentrations were 4 pM TREX1,”, “reaction were 5.3 pM TREX1,” for “reaction were 3.5 pM TREX1,”, “of 17 p L. After a” for “of 17 μL. After a”

| hTREX1 vs hTREX2 selectivity [1] | IC50 [2] [nM] | IC50 [3] [nM] | Compound |
| --- | --- | --- | --- |
| A (A = <25 fold selective for hTREX1) | 10 to 100 | > 10 | CC(c1nc(C(=O)Nc2cnoc2)c(O)c(=O)n1C)C(c1ccccc1)c1cc(C(=O)N(C)C)ccc1C#N (single isomer, unassigned) [Example 17 Isomer 1] |
| A (A = <25 fold selective for hTREX1) | > 100 | > 10 | C[C@H](c1nc(C(=O)Nc2cnoc2)c(O)c(=O)n1C)[C@H](c1ccccc1)c1ccccc1C(F)(F)F (single isomer, unassigned) [Example 14 Isomer 1, 5-Hydroxy-N-(isoxazol-4-yl)-1-methyl-6-oxo-2-(1-phenyl-1-(2-(trifluoromethyl)phenyl)propan-2-yl)-1,6-dihydropyrimidine-4-carboxamide] |
| A (A = <25 fold selective for hTREX1) | > 100 | > 10 | CC(c1nc(C(=O)Nc2cnoc2)c(O)c(=O)n1C)C(c1ccccc1)c1cc(F)ccc1C#N (single isomer, unassigned) [Example 6 Isomer 3] |
| C (C = >50 fold selective for hTREX1) | 1 to 10 | > 10 | CC(c1nc(C(=O)Nc2cnoc2)c(O)c(=O)n1C)C(c1ccccc1)c1cc(F)ccc1C#N (single isomer, unassigned) [Example 6 Isomer 1] |
| C (C = >50 fold selective for hTREX1) | < 1 | < 1 | CC(c1nc(C(=O)Nc2cnoc2)c(O)c(=O)n1C)C(c1ccc(F)cc1F)c1ccccc1C#N (single isomer, unassigned) [Example 13 Isomer 1] |

More lines, now with the values behind:

| Compound | hTREX1 vs hTREX2 selectivity [1] | IC50 [2] [nM] | IC50 [3] [nM] |
| --- | --- | --- | --- |
| CC(c1nc(C(=O)Nc2cnoc2)c(O)c(=O)n1C)C(c1ccc(F)cc1F)c1ccccc1C#N (single isomer, unassigned) [Example 13 Isomer 2] | C (C = >50 fold selective for hTREX1) | < 1 | 1 to 10 |
| Cn1c([C@@H](CF)C(c2ccccc2)c2ccccc2)nc(C(=O)Nc2cnoc2)c(O)c1=O (single isomer, unassigned) [Example 18 Isomer 1, 2-(3-fluoro-1,1-diphenylpropan-2-yl)-5-hydroxy-N-(isoxazol-4-yl)-1-methyl-6-oxo-1,6-dihydropyrimidine-4-carboxamide] | A (A = <25 fold selective for hTREX1) | 10 to 100 | > 10 |
| CC(c1nc(C(=O)Nc2cnoc2)c(O)c(=O)n1C)C(c1ccc(F)c(F)c1)c1ccccc1C#N (single isomer, unassigned) [Example 12 Isomer 3] | B (B = 25 to 50 fold selective for hTREX1) | < 1 | < 1 |
| CC(c1nc(C(=O)Nc2cnoc2)c(O)c(=O)n1C)C(c1ccccc1Cl)c1ccccc1C#N (single isomer, unassigned) [Example 10 Isomer 4] | C (C = >50 fold selective for hTREX1) | < 1 | 1 to 10 |
| Cn1c(C(F)(F)C(c2ccccc2)c2ccccc2)nc(C(=O)Nc2cnoc2)c(O)c1=O [Example 19, 2-(1,1-difluoro-2,2-diphenylethyl)-5-hydroxy-N-(isoxazol-4-yl)-1-methyl-6-oxo-1,6-dihydropyrimidine-4-carboxamide] | B (B = 25 to 50 fold selective for hTREX1) | 10 to 100 | > 10 |
| CC(c1nc(C(=O)Nc2cnoc2)c(O)c(=O)n1C)C(c1ccccc1)c1ccc(F)cc1C#N (single isomer, unassigned) [Example 7 Isomer 2] | A (A = <25 fold selective for hTREX1) | > 100 | > 10 |
| CC(c1nc(C(=O)Nc2cnoc2)c(O)c(=O)n1C)C(c1ccc(F)cc1F)c1ccccc1C#N (single isomer, unassigned) [Example 13 Isomer 3] | B (B = 25 to 50 fold selective for hTREX1) | 10 to 100 | > 10 |
| C[C@H](c1nc(C(=O)Nc2cnoc2)c(O)c(=O)n1C)[C@H](c1ccccc1)c1ccc(C(=O)N(C)C)cc1C#N (single isomer, unassigned) [Example 16 Isomer 3, 2-(1-(2-cyano-4-(dimethylcarbamoyl)phenyl)-1-phenylpropan-2-yl)-5-hydroxy-N-(isoxazol-4-yl)-1-methyl-6-oxo-1,6-dihydropyrimidine-4-carboxamide] | A (A = <25 fold selective for hTREX1) | > 100 | > 10 |
| C[C@H](c1nc(C(=O)Nc2cnoc2)c(O)c(=O)n1C)C(c1ccccc1Cl)c1ccccc1Cl (single isomer, unassigned) [Example 15 Isomer 2, 2-(1,1-bis(2-chlorophenyl)propan-2-yl)-5-hydroxy-N-(isooxazol-4-yl)-1-methyl-6-oxo-1,6-dihydropyrimidine-4-carboxamide] | A (A = <25 fold selective for hTREX1) | > 100 | > 10 |
